Laboratory results taken from patent US20110251175A1, “Stigmine Conjugates for Substance Use Disorders” (priority 2008, published 2011).
Where two headings read alike, the source gives them in different places.

What was measured:
[1] = system: male CD IGS (Sprague Dawley derived) rats; experiment: Dose range for cholinergic effects / max tolerated dose; conditions: for TIMTD/ MED: ratio of max tolerated dose to hypothermia MED, rats s.c.
Protocol: The dose range and time course for cholinergic effects of the compounds of the invention was determined as described below. • Subjects: Two hundred eight male CD IGS (Sprague Dawley derived) rats were received at 126-150 grams and maintained four per cage on a regular light/dark cycle (lights on 0600-1800) with ad libitum food and water for about 1 week before commencement of experimentation. • Apparatus: Injections were made subcutaneously (s.c.) with a 25-gauge needle on a 1-mL tuberculin syringe. Observations were made in a 5½×10-inch polycarbonate rat housing cage. Temperature was taken with a rat rectal probe on a Model BAT-12 electronic thermometer. • Compound Preparation: Test compounds were dissolved for example, in 0.9% saline. […] Injection volumes were 1 mL/kg, if the test compound was sufficiently soluble. If less soluble, maximum injection volume were 5 mL/kg.
Test Compounds were dosed at 1, 3, 10, 30, and 100 mg/kg • Procedure: The rats were brought to the test room in the home cage. Baseline temperatures were measured just before injection. After injection s.c., the rat was placed in the observation cage. At 0.5, 1, 2, and 4 hours after injection, it was observed briefly for gross signs; salivation was scored as absent, clearly present, or copious; and rectal temperature was taken. In observation for gross signs, special attention was paid to fasciculation (muscle twitch), tremor/ataxia, and abnormal gait. The experiment was designed to allow assessment of one rat per time point per minute. Salivation score and temperature were determined within this constraint, but only the most salient of gross signs were noted. After the 4-hour observation point, or sooner if signs of distress were observed, the rat was euthanized by CO2 inhalation. • Data Analysis: Gross signs, salivation score, and temperature at each time point were tabulated for inspection. This is a combination of within-subject design for control and between-subjects design for dose effect. That is, the effect of the compound was measured against the reading taken immediately before injection, and the difference between doses of the compound was measured between groups of three rats.

BuChE = BuChE (Homo sapiens, UniProt P06276); experiment: In vitro screening assay, BuChE inhibition; assay type: biochemical
Sequence of BuChE (P06276 29-602): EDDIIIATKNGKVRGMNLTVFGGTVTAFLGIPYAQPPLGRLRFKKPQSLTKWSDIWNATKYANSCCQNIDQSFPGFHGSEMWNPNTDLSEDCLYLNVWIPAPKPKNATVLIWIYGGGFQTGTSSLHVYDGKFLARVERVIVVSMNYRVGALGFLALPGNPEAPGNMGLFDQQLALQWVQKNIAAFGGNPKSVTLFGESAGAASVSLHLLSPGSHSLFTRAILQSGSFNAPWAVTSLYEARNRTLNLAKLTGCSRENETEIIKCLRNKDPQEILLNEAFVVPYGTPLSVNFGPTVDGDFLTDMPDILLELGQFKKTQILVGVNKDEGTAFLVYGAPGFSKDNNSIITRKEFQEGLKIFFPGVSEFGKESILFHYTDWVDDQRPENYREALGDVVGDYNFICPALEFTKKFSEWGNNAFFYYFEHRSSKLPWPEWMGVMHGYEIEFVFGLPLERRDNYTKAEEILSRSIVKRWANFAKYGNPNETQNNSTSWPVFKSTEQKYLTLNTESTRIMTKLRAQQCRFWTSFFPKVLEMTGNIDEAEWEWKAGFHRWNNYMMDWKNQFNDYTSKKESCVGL
From the text: An in vitro screening assay with various conjugates was completed according to the methods described in Ellman G L et al., Biochem Pharmacol., 7:88-95 (1961) and in Nadarajah B, J. Anal. Toxicol., 16:192-193 (1992), both of which are herein incorporated by reference in their entireties. The assay method was completed according to the following: […]

[2] = target: T1, human recombinant acetylcholinesterase (Homo sapiens, UniProt P22303); experiment: biochemical; conditions: human recombinant AChE, 25° C., 30 minutes preincubation, Dixon plot
T1 construct: purchased Sigma Chemical Co (St. Louis, Mo.) C1682
T1 sequence (P22303 32-614): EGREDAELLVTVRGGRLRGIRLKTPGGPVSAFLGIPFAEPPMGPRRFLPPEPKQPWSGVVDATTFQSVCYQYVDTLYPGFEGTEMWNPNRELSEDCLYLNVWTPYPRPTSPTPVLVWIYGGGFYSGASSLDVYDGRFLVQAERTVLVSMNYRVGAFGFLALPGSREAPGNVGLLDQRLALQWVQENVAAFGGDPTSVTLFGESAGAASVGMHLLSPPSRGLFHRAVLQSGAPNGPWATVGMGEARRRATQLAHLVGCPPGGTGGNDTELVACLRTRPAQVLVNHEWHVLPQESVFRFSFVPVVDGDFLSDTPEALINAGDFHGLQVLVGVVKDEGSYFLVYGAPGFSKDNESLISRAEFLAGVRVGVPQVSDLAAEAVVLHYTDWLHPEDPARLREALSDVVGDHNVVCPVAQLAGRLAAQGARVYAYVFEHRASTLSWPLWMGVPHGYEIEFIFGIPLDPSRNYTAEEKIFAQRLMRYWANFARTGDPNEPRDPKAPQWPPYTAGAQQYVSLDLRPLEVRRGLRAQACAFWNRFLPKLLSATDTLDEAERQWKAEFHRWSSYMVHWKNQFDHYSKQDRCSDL

[3] = target: T2, AChE (Human recombinant HEK-293 cells) (Homo sapiens, UniProt P22303); assay type: biochemical
T2 construct: host or cells: HEK-293 cells (expression host as printed)
T2 sequence (P22303 32-614): as above

[4] = system: male CD IGS (Sprague Dawley derived) rats; experiment: Measurement of hypothermia (marker of CNS penetration for AChE inhibitors); assay type: in vivo; conditions: Rattus norvegicus, sc, read-out: Hypothermia MED (mg/kg)
Protocol: The induction of hypothermia was determined for compounds of the invention according to the methods described in Freedman, et al., European Journal of Pharmacology, 187 (1990), 193-199, which is incorporated by reference herein. Hypothermia is a marker of CNS penetration for AChE inhibitors.
The dose range and time course for cholinergic effects of the compounds of the invention was determined as described below. • Subjects: Two hundred eight male CD IGS (Sprague Dawley derived) rats were received at 126-150 grams and maintained four per cage on a regular light/dark cycle (lights on 0600-1800) with ad libitum food and water for about 1 week before commencement of experimentation. • Apparatus: Injections were made subcutaneously (s.c.) with a 25-gauge needle on a 1-mL tuberculin syringe. Observations were made in a 5½×10-inch polycarbonate rat housing cage. […]
Test Compounds were dosed at 1, 3, 10, 30, and 100 mg/kg • Procedure: The rats were brought to the test room in the home cage. Baseline temperatures were measured just before injection. […] At 0.5, 1, 2, and 4 hours after injection, it was observed briefly for gross signs; salivation was scored as absent, clearly present, or copious; and rectal temperature was taken. […] Salivation score and temperature were determined within this constraint, but only the most salient of gross signs were noted. […]

rats = experiment: Methamphetamine drug discrimination test

C[C@@H](c1cccc(OC(=O)N(C)CCCN2c3ccccc3CCc3ccccc32)c1)N(C)C [Compound 4A, S-riva-desipramine]
TIMTD/ MED [1]: ≧30 | BuChE I (%) 10 μM (BuChE; 10 μM): 60%

C#CCN(C(=O)Oc1cccc([C@H](C)N(C)C)c1)[C@H](C)Cc1ccccc1 [Compound 11, S-riva-desmethylselegiline]
BuChE I (%) 10 μM (BuChE; 10 μM): 17%

C[C@@H](c1cccc(OC(=O)N2CCN(C3=Nc4ccccc4Oc4ccc(Cl)cc43)CC2)c1)N(C)C [Compound 3, S-riva-amoxapine]
TIMTD/ MED [1]: ≧10 | BuChE I (%) 10 μM (BuChE; 10 μM): 6%

C[C@@H](c1cccc(OC(=O)N(C)CC[C@H](Oc2cccc3ccccc23)c2cccs2)c1)N(C)C [Compound 10A, S-riva-duloxetine]
BuChE I (%) 10 μM (BuChE; 10 μM): 36%

C[C@@H](c1cccc(OC(=O)N2CC[C@@H](c3ccc(F)cc3)[C@H](COc3ccc4c(c3)OCO4)C2)c1)N(C)C [Compound 9A, S-riva-paroxetine]
BuChE I (%) 10 μM (BuChE; 10 μM): 4%

C[C@@H](c1cccc(OC(=O)N(C)CCC(Oc2ccc(C(F)(F)F)cc2)c2ccccc2)c1)N(C)C (stereo partly shown) [Compound 7A, S-riva-fluoxetine]
TIMTD/ MED [1]: ≧30 | BuChE I (%) 10 μM (BuChE; 10 μM): 15%

CCN(C)C(=O)Oc1cccc([C@H](C)N(C)C)c1 [Compound 1, S-rivastigmine, reference compound]
BuChE I (%) 10 μM (BuChE): 100%

C[C@@H](c1cccc(OC(=O)N(C)[C@@H](C)Cc2ccccc2)c1)N(C)C [Compound 13, S-riva-d-methamphetamine]
IC50 [2]: 5440 nM

CC(CC1CCCCC1)N(C)C(=O)Oc1cccc([C@H](C)N(C)C)c1 (stereo partly shown) [Compound 16, S-riva-propylhexedrine]
TIMTD/ MED [1]: ≧10

C[C@@H](c1cccc(OC(=O)N[C@H]2C[C@@H]2c2ccccc2)c1)N(C)C (stereo in doubt) [Compound 2, S-riva-tranylcypromine]
TIMTD/ MED [1]: 3 | BuChE I (%) 10 μM (BuChE; 10 μM): 67%

C#CCN(C(=O)Oc1cccc([C@@H](C)N(C)C)c1)[C@H](C)Cc1ccccc1 [Compound 17, R-riva-desmethylselegiline]
BuChE I (%) 10 μM (BuChE; 10 μM): 12%

Cc1ccccc1O[C@H](CCN(C)C(=O)Oc1cccc([C@H](C)N(C)C)c1)c1ccccc1 [Compound 5, S-riva-atomoxetine]
BuChE I (%) 10 μM (BuChE; 10 μM): 14%

CN1CC[C@@]2(C)c3cc(OC(=O)Nc4ccccc4)ccc3N(C)[C@@H]12 [Phenserine, reference compound]
BuChEI (%) 1 μM [3]: 93% | BuChE I (%) 10 μM (BuChE): 42%

COCCCC/C(=N\OCCNC(=O)Oc1cccc([C@H](C)N(C)C)c1)c1ccc(C(F)(F)F)cc1 [Compound 8A, S-riva-fluvoxamine]
BuChE I (%) 10 μM (BuChE; 10 μM): 6%

C[C@@H](c1cccc(OC(=O)N(C)CCC=C2c3ccccc3CCc3ccccc32)c1)N(C)C [Compound 5A, S-riva-nortriptyline]
TIMTD/ MED [1]: ≧100 | Max Tolerated Dose ([1]; rats, s.c., test doses given in mg/kg): ≧100 | BuChE I (%) 10 μM (BuChE; 10 μM): 55% | minimal effective dose [4]: ≤ 1 mg/kg

C#CCN(C(=O)Oc1ccc2c(c1)[C@]1(C)CCN(C)[C@@H]1N2C)[C@H](C)Cc1ccccc1 [Compound 18, Physo-desmethylselegiline]
BuChE I (%) 10 μM (BuChE; 10 μM): 8%

C[C@@H](c1cccc(OC(=O)N(C)CCCC2c3ccccc3C=Cc3ccccc32)c1)N(C)C [Compound 6A, S-riva-protriptyline]
TIMTD/ MED [1]: >1 | BuChE I (%) 10 μM (BuChE; 10 μM): 53%

COc1ccccc1CC(C)N(C)C(=O)Oc1cccc([C@H](C)N(C)C)c1 (stereo partly shown) [Compound 15, S-riva-methoxyphenamine]
BuChE I (%) 10 μM (BuChE; 10 μM): 30%

C[C@H](Cc1ccccc1)N(C)C(=O)Oc1cccc([C@H](C)N(C)C)c1 [Compound 7, S-riva-l-methamphetamine]
generalization to methamphetamine (lever selection) (rats; rats trained to discriminate methamphetamine from vehicle, compound 7 at 0.01-3.2 mg/kg i.p., FIG. 1 top): lack of stimulus generalization to methamphetamine | behavioral disruption (rats; rats, 1.0 mg/kg of compound 7, FIG. 2 lower): without behavioral disruption | rate of responding (rats; rats, compound 7 at 0.01-3.2 mg/kg i.p., FIG. 1 lower): markedly decreased reponse rates

C[C@@H](Cc1ccccc1)NC(=O)Oc1cccc([C@H](C)N(C)C)c1 [Compound 20, S-riva-d-amphetamine]
IC50 [2]: 449 nM
